Assay results: publication PMC3138742 (PLoS ONE, 2011)

Tests used:
Abl = Abl (Homo sapiens, UniProt P00519); conditions: cell-free
Method: (§1) The tyrosine kinase activities were determined using enzyme-linked immunosorbant assay (ELISA). The serine/threonine kinase activities were detected by Caliper Mobility Shift Assay on EZ Reader (Caliper Life Sciences, MA) according to the instruction.
(§2) The kinase domain of EGFR, ErbB-2, IGF1R, VEGFR2, FGFR1, PDGFRα, c-Src, c-Met, RON, c-Kit, EphA2 and EphB2 were expressed using the Bac-to-Bac^TM baculovirus expression system (Invitrogen, Carlsbad, CA, USA) and purified on Ni-NTA columns (QIAGEN Inc., Valencia, CA, USA). VEGFR1, PDGFRβ and c-Abl were purchased from Upstate Biotechnology Inc. (Charlottesville, Virginia, USA). […] EGF was purchased from R&D, Minneapolis, […]. Poly(Glu-Tyr)(4:1), the substrate of tyrosine kinase, was from Sigma-Aldrich Corp. St. Louis, MO, USA.
(§3) The tyrosine kinase activities were determined in 96-well ELISA plates (Corning, NY, USA) precoated with 20 μg/mL Poly (Glu,Tyr)4:1. First, 80 μL of 5 μM ATP solution diluted in kinase reaction buffer (50 mM HEPES pH 7.4, 20 mM MgCl2, 0.1 mM MnCl2, 0.2 mM Na3VO4, 1 mM DTT) was added to each well. […] Subsequently, the kinase reaction was initiated by the addition of purified tyrosine kinase proteins diluted in 10 μL of kinase reaction buffer solution. Experiments at each concentration were performed in duplicate. After incubation for 60 min at 37 °C, the plate was washed three times with phosphate buffered saline (PBS) containing 0.1% Tween 20 (T-PBS). Next, 100 μL anti-phosphotyrosine antibody (PY99, 1:500 dilution) diluted in T-PBS containing 5 mg/mL BSA was added. After 30 min incubation at 37 °C, the plate was washed three times as before. Horseradish peroxidase-conjugated goat anti-mouse IgG (100 μL) diluted 1:2000 in T-PBS containing 5 mg/ml BSA was added. The plate was reincubated at 37 °C for 30 min, and then washed with PBS.

IGF1R = IGF1R (Homo sapiens, UniProt P08069); conditions: cell-free
Method: as §1, §2, §3

KDR = KDR (Homo sapiens, UniProt P35968); conditions: cell-free
Method: as §1, §2, §3

SYK = SYK (Homo sapiens, UniProt P43405); conditions: cell-free
Method: as §1, §2, §3

Tie2 = Tie2 (Homo sapiens, UniProt Q02763); conditions: Tie2, cell-free
Method: as §1, §2, §3

c-Src = c-Src (Homo sapiens, UniProt P12931); conditions: cell-free
Method: as §1, §2, §3

EGFR T790M/L858R = target: T1, EGFR T790M/L858R (Homo sapiens, UniProt P00533, L858R/T790M); test: In vitro tyrosine kinase assay (ELISA); type: biochemical; conditions: EGFR T790M/L858R double mutant, cell-free; means ± SD
T1 construct: purchased Cell Signaling Technology Inc
Method: as §1, §2
The tyrosine kinase activities were determined in 96-well ELISA plates (Corning, NY, USA) precoated with 20 μg/mL Poly (Glu,Tyr)4:1. First, 80 μL of 5 μM ATP solution diluted in kinase reaction buffer (50 mM HEPES pH 7.4, 20 mM MgCl2, 0.1 mM MnCl2, 0.2 mM Na3VO4, 1 mM DTT) was added to each well. […] Subsequently, the kinase reaction was initiated by the addition of purified tyrosine kinase proteins diluted in 10 μL of kinase reaction buffer solution. Experiments at each concentration were performed in duplicate. […]

[1] = system: NIH3T3-EGFR T790M/L858R cells; test: Cell proliferation SRB assay; type: cell-based; conditions: 72 h
Method: as §1
(§4) Cell viability was determined using sulforhodamine B assay. IC50 values were determined based on the results of three independent experiments. […] Whole-cell lysates were assayed for total EGFR and phosphorylation of EGFR by immunoblotting. […] Cell viability was determined using sulforhodamine B assay.

NIH3T3 parental cells = test: Cell proliferation SRB assay; type: cell-based; conditions: 72 h, compared with NIH3T3-EGFR T790M/L858R
From the text: SK-OV-3, BT474, MDA-MB-468, Calu-3, A-549, NCI-H23, NCI-H1975 and NIH3T3 cells were obtained from the American Type Culture Collection (Rockville, MD). HO-8910 cells were obtained from the cell bank of the Chinese Academy of Sciences. MCF-7 cells were obtained from the Japanese Foundation of Cancer Research. NIH3T3 cells that overexpressed EGFR T790M/L858R mutant (NIH3T3-EGFR T790M/L858R) were constructed and maintained in our laboratory. All cell lines were maintained in strict accordance with the supplier's instructions and established procedures.
as §4, with “immunoblotting. A representative anti-GAPDH immunoblot is shown as a loading control.” for “immunoblotting.”
Cell proliferation was evaluated using the SRB (Sulforhodamine B) assay as previously described. Briefly, cells were seeded into 96-well plates and grown for 24 h. […] After cells were air-dried, protein-bound dye was dissolved in 150 μL of 10 mmol/L Tris base for 5 min and measured at 515 nm using a multiwell spectrophotometer (VERSAmax, Molecular Devices). […] The IC50 value was obtained by the Logit method and was determined from the results of at least 3 independent tests.

[2] = system: EGFR phosphorylation in A549 cells; test: Western blot of EGF-induced EGFR phosphorylation; type: cell-based, human; conditions: 0.01 µM, 4 h, EGF 50 ng/ml 15 min
A549 cells = test: Anchorage-independent growth on soft agar; type: cell-based, human; conditions: two weeks
Method: The culture was maintained at 37°C in a 5% CO2 atmosphere for two weeks. The average colony number was calculated and colonies were photographed. […] Anchorage-independent cell transformation assay. Cell transformation was detected in SK-OV-3 and A549 cells, respectively. […] The culture were maintained in a 37°C, 5% CO2 incubator for 1-2 weeks, and the cell colonies were scored using a microscope and the Image-Pro PLUS computer software program (Media Cybernetics, Silver Spring, MD).

[3] = system: SK-OV-3 cells transfected with ErbB2 siRNA; test: SRB assay after ErbB2 siRNA transfection; type: cell-based, human; conditions: SK-OV-3, ErbB2 siRNA 50 nmol/L, AST1306 6.25 µmol/L (p<0.05) or 12.5 µmol/L (p<0.01)
From the text: (§5) Small interfering RNA (siRNA) against EGFR or ErbB2, as well as control siRNA, were designed and synthesized by Shanghai GenePharma Co. Ltd. One pair of ErbB2 siRNA (sequence: 5′ […] 3′), and two pairs of EGFR siRNA (#1 sequence: 5′ […] 3′; #2 sequence: 5′ […] 3′) were applied in this study. Different kind of siRNA (final concentration: 50 nmol/L) was transfected to SK-OV-3 cells with oligofectamine reagent (Invitrogen) according to the manufacturer's instruction.

[4] = system: SK-OV-3 cells transfected with EGFR siRNA; test: SRB assay after EGFR siRNA transfection; type: cell-based, human; conditions: SK-OV-3, two independent pairs of EGFR siRNAs
From the text: as §5

[5] = Body weights in FVB-2/N^neu transgenic mouse study; type: in vivo; conditions: FVB-2/N^neu mice, oral twice daily for 3 wk
From the text: Thirty eight- to forty four-week-old female FVB/N^neu mice were obtained from Shanghai Laboratory Animal Center. The animals were housed under specific pathogen-free conditions.

Chain of IGF1R (P08069 999-1274 limits assumed): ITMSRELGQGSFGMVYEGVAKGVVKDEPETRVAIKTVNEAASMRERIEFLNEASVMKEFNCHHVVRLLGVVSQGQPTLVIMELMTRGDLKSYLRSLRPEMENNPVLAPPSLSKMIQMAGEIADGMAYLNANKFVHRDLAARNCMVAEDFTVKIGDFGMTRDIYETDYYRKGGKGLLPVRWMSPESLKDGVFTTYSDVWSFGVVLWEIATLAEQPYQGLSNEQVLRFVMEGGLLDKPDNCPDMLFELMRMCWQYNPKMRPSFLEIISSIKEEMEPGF
T1 sequence (P00533 25-1210 T790M/L858R): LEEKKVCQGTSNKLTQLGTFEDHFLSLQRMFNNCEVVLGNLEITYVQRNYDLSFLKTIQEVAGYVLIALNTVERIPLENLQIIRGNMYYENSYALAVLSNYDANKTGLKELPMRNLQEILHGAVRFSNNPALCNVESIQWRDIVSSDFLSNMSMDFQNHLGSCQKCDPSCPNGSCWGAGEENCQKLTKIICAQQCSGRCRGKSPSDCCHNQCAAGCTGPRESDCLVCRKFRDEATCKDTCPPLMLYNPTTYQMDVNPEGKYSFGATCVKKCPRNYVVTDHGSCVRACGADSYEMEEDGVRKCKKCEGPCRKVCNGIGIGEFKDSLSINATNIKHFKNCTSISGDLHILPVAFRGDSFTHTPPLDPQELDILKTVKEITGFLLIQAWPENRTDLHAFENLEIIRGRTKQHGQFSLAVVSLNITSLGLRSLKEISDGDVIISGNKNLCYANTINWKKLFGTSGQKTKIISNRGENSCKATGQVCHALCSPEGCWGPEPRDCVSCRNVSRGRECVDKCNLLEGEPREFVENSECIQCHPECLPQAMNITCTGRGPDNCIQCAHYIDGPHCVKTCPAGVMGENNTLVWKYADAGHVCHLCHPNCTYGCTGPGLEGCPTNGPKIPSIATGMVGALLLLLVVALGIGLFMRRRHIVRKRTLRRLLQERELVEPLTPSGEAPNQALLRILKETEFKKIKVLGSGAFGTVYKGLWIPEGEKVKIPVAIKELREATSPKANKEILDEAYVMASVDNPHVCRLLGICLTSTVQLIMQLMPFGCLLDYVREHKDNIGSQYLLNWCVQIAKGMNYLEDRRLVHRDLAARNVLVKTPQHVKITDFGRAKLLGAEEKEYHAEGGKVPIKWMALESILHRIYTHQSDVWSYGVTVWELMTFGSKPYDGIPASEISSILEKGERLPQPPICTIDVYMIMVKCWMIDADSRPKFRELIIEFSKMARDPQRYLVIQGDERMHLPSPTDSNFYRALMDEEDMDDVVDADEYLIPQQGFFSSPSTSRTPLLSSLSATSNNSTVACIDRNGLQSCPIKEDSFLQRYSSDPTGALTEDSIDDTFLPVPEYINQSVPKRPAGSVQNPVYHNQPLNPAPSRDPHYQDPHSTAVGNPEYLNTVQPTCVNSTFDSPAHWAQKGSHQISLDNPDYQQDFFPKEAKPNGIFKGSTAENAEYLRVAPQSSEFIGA
Chain of Abl (P00519 whole entry, species assumed): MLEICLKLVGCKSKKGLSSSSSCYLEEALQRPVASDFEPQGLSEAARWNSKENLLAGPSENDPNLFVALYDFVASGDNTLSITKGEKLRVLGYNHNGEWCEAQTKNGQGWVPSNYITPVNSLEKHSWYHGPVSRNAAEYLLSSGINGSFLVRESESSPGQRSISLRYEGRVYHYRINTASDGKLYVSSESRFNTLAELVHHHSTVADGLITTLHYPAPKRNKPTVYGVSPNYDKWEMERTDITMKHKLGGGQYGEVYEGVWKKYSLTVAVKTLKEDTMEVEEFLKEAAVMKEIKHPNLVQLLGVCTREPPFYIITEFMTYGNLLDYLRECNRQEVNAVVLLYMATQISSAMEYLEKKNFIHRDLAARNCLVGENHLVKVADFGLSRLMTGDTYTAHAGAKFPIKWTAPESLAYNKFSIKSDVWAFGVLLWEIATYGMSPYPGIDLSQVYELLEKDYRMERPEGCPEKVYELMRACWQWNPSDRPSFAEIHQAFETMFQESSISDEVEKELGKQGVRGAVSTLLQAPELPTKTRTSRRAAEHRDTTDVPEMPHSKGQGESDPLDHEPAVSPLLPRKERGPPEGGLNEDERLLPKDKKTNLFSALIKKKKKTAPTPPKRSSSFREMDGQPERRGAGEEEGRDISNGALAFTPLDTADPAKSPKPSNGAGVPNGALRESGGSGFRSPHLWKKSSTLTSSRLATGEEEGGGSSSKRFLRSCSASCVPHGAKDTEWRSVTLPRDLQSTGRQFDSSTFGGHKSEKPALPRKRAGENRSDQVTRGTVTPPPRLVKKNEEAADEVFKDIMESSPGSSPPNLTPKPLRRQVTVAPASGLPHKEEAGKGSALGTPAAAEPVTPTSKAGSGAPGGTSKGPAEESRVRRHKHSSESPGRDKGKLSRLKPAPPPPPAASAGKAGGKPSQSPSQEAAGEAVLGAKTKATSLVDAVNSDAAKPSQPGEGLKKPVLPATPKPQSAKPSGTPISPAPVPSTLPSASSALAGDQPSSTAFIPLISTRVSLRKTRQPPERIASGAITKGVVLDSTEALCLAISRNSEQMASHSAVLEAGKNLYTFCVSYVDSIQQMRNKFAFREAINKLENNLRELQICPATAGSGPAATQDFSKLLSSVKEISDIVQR
Chain of Tie2 (Q02763 23-1124): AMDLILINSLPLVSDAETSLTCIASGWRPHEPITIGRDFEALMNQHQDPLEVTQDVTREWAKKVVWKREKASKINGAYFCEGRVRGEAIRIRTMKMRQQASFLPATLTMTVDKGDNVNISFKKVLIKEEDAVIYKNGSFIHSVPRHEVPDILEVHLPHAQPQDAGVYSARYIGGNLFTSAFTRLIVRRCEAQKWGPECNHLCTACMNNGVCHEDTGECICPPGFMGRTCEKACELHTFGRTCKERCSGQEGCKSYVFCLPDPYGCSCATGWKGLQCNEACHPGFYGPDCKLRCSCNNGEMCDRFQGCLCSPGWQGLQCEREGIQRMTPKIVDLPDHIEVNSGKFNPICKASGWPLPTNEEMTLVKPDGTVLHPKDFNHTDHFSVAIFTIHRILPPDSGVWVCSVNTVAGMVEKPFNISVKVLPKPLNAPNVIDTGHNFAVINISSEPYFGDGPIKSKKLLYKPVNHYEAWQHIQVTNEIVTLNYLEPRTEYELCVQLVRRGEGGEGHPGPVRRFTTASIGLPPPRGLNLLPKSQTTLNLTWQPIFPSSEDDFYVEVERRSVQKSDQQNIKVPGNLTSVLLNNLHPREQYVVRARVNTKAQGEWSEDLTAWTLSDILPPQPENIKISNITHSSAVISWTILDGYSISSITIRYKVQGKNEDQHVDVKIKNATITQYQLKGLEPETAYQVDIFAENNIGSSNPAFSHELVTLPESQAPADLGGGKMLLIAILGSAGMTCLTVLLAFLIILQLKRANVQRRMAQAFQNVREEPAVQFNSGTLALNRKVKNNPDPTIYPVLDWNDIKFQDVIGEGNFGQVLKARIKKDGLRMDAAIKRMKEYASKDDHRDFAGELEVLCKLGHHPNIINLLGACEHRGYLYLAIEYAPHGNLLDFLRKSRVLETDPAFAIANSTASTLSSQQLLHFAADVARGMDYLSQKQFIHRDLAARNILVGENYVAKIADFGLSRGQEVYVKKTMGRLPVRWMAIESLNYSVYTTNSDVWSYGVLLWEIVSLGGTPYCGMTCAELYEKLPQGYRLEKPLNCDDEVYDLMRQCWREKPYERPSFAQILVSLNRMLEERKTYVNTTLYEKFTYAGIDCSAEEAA
Chain of KDR (P35968 834-1162 limits assumed): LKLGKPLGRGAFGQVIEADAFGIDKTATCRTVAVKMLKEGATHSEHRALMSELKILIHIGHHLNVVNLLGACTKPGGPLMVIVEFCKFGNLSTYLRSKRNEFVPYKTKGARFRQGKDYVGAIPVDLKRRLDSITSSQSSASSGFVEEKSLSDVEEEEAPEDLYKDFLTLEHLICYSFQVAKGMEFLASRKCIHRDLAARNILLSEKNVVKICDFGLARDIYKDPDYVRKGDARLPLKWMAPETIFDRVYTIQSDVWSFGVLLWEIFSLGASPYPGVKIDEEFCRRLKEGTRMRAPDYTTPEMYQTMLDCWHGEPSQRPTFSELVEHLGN
Chain of c-Src (P12931 270-523 limits assumed): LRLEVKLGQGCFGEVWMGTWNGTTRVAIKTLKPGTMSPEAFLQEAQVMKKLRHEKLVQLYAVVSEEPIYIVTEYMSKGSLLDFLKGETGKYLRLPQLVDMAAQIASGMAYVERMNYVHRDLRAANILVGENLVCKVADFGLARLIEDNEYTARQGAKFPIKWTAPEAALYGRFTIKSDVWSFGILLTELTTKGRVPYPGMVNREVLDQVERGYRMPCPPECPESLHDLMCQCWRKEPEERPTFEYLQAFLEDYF

In the case of `C=CC(=O)Nc1ccc2ncnc(Nc3ccc(OCc4cccc(F)c4)c(Cl)c3)c2c1` [AST1306], the IC50 (Abl) is reported as greater than 10 µM, the IC50 (IGF1R) is reported as greater than 10 µM and the IC50 (KDR) is reported as greater than 10 µM. It also gave an IC50 (SYK) greater than 10 µM, an IC50 (Tie2) greater than 10 µM and an IC50 (c-Src) greater than 10 µM. For the same molecule, the IC50 (EGFR T790M/L858R) was 0.012 ± 0.002 µM, the “inhibition of cell growth” value [1] was “significant, concentration-dependent inhibition” and the “inhibition of cell growth” value (NIH3T3 parental cells) was “much less potent”. For the same molecule, the “EGF-induced EGFR phosphorylation (phospho-EGFR bands)” value [2] was “almost disappeared”, the “anchorage-independent growth on soft agar” value (A549 cells) was “dramatically inhibit the growth” and the “sensitivity to antiproliferative effect after ErbB2 knockdown” value [3] was “significantly more resistant”. The “antiproliferative activity after EGFR knockdown” value [4] was “did not significantly affect” and the “decrease of body weights during treatment” value [5] was “less than 20%”.
